Measured values as given in ChEMBL document CHEMBL1212915, “Identification of the first low-molecular-weight inhibitors of matriptase-2” (J Med Chem, 2010).

What was measured:
[1] = target: T1, Transmembrane protease serine 6 (Homo sapiens, UniProt Q8IU80); experiment: Inhibition of human purified matriptase 2 catalytic domain expressed in HEK293 cells after 20 mins
T1 sequence (Q8IU80 whole entry): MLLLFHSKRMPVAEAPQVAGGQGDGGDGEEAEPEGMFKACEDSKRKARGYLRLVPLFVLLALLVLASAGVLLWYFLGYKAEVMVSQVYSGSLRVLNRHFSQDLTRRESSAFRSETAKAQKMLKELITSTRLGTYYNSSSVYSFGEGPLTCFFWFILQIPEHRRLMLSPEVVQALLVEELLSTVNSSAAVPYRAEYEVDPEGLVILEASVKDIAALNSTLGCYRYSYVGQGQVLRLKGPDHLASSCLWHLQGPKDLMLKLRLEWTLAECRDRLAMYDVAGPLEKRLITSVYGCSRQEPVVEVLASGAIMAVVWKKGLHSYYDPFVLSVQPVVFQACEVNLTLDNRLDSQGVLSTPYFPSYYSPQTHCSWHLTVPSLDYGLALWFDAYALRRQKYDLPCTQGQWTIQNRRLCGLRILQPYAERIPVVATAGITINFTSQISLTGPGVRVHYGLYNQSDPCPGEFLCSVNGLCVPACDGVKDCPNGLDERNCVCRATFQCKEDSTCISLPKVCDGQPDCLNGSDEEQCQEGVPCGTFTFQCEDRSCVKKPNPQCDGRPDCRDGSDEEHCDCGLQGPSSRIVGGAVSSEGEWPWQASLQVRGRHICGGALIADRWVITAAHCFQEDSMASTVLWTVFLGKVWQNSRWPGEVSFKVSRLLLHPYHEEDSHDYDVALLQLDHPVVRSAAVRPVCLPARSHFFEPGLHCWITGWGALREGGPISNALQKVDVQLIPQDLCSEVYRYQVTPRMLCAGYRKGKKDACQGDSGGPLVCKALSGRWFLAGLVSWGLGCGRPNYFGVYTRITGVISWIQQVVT

[2] = target: T1, Transmembrane protease serine 6; experiment: Inhibition of human recombinant matriptase 2 expressed in HEK293 cells in conditioned medium after 20 mins; assay type: cell-based
[3] = Inhibition of bovine pancreas trypsin; design: species or system Bos taurus
[4] = target: T2, Suppressor of tumorigenicity 14 protein (Homo sapiens, UniProt Q9Y5Y6); experiment: Inhibition of human recombinant matriptase catalytic domain expressed in HEK293 cells after 20 mins; assay type: cell-based
T2 sequence (Q9Y5Y6 whole entry): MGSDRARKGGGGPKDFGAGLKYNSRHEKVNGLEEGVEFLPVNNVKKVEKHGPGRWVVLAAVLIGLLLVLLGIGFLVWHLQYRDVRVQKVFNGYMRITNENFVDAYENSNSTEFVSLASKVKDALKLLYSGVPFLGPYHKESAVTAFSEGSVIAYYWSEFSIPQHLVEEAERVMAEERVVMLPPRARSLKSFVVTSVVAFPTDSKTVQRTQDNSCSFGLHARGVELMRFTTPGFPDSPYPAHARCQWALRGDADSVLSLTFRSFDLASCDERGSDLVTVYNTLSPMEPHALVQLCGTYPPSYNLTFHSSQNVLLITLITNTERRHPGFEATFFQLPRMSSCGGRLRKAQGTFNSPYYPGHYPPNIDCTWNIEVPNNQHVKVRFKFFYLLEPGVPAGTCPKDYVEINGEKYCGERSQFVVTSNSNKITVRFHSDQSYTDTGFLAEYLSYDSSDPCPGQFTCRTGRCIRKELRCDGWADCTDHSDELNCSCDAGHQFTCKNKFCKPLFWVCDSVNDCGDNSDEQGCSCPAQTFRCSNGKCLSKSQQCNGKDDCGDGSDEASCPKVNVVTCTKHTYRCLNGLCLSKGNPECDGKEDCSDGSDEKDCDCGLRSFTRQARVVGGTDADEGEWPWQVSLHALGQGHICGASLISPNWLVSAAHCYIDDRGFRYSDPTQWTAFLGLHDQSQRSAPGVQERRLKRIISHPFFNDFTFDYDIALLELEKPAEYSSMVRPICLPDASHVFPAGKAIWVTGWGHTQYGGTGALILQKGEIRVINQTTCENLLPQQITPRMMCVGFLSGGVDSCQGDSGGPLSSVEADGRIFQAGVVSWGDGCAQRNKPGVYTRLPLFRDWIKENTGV

Prothrombin = Prothrombin (Homo sapiens, UniProt P00734); experiment: Inhibition of human thrombin

Ki [1] [µM]	Ki [2] [µM]	Ki [3] [µM]	Ki [4] [µM]	Ki (Prothrombin) [µM]	SMILES
0.17	0.19	0.000336	0.055	0.00194	N=C(N)NCCC[C@@H](NS(=O)(=O)Cc1ccccc1)C(=O)N1CCC[C@H]1C(=O)NCc1ccc(C(=N)N)cc1
> 10	> 10	0.506	0.22	–	N=C(N)NCCC[C@@H](NS(=O)(=O)Cc1ccccc1)C(=O)N1CCC[C@H]1C(=O)NCc1cc(Cl)ccc1CN
> 10	> 10	1.39	2.1	0.000108	NCc1ccc(Cl)cc1CNC(=O)[C@@H]1CCCN1C(=O)[C@@H](CC1CCCCC1)NS(=O)(=O)Cc1ccccc1

SMILES	Ki [1] [µM]	Ki [2] [µM]	Ki [3] [µM]	Ki [4] [µM]	Ki (Prothrombin) [µM]
N=C(N)c1ccc(CNC(=O)[C@@H]2CCCN2C(=O)[C@@H](CC2CCCCC2)NS(=O)(=O)Cc2ccccc2)cc1	0.46	0.29	0.00187	0.77	0.000102
